# Measured values from US12495798B2, “Nicotinamide compound and herbicidal composition comprising compound” (KOREA RESEARCH INSTITUTE OF CHEMICAL TECHNOLOGY, priority 2019, dated 2025).
# How the values were obtained:
# Type in all cases: in vivo
# crabgrass = test: Herbicidal activity test against upland field weeds (soil treatment test); design: key to Soil treatment herbicidal activity, Crabgrass: 0 (no control); 100 (complete control); conditions: 50 g ai/ha, scale 0 (no control) to 100 (complete control); for pest or weed control at 50 g/ha: Digitaria sanguinalis
# Summary of the method: (§1)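 Pre-emergence soil surface spray, day after sowing, into sandy loam pots with fertilizer; compounds at 50 or 75 g a.i./ha in 50% acetone, 0.1% Tween-20. Greenhouse at 30±5 °C, 14/10 h light/dark; visual control rated 0–100 against untreated after 14 days (21 if needed).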
# barnyard grass = test: as above; design: key to Soil treatment herbicidal activity, barnyard grass: 0 (no control); 100 (complete control); conditions: 50 g ai/ha, scale 0 (no control) to 100 (complete control); for pest or weed control at 50 g/ha: Echinochloa crus-galli
# Summary of the method: as §1
# velvetleaf [1] = test: Herbicidal activity test against upland field weeds (foliar treatment test); design: key to Foliar treatment herbicidal activity, velvet leaf: 0 (no control); 100 (complete control); conditions: 50 g ai/ha; for Foliar treatment herbicidal activity, velvet leaf: scale 0-100
# Summary of the method: (§2)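 Greenhouse-grown plants (30±5 °C, 14/10 h light/dark) foliar hand-sprayed with compound in 50% acetone, 0.1% Tween-20 at 50 or 75 g a.i./ha. Control visually scored 0 (none) to 100 (complete) versus untreated after 14 days, or 21 days if needed.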
# quack grass [2] = test: as above; design: key to Foliar treatment herbicidal activity, quack grass: 0 (no control); 100 (complete control); conditions: 50 g ai/ha, scale 0-100
# Summary of the method: as §2
# sorghum = test: as above; conditions: 50 g ai/ha, scale 0-100; for plant injury at 50 g/ha: Sorghum
# Summary of the method: as §2
# cotton = test: Phytotoxicity test for upland field crops (foliar treatment test); design: key: 0 (no harm); 9 (complete withered)
# Summary of the method: (§3)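 Phytotoxicity was rated on a 0 (no harm) to 9 (complete withered) scale relative to untreated plants, 7 and 14 days after spraying. Crops had been grown in fertilized horticultural soil under greenhouse conditions before foliar application at 19˜300 g a.i./ha.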
# rice = test: as above; design: key: 0 (no harm); 9 (complete withered)
# Summary of the method: as §3
# soybean = test: as above; design: key: 0 (no harm); 9 (complete withered)
# Summary of the method: as §3
# wheat = test: as above; design: key: 0 (no harm); 9 (complete withered)
# Summary of the method: as §3
# corn = test: as above; design: key: 0 (no harm); 9 (complete withered)
# Summary of the method: as §3
# cocklebur = test: Herbicidal activity test against upland field weeds (foliar treatment test); design: key to Foliar treatment herbicidal activity, Cocklebur: 0 (no control); 100 (complete control); conditions: 50 g ai/ha, scale 0-100; for pest or weed control at 50 g/ha: Xanthium strumarium
# Summary of the method: as §2
# quack grass [3] = test: Herbicidal activity test against upland field weeds (soil treatment test); design: key to Soil treatment herbicidal activity, quack grass: 0 (no control); 100 (complete control); conditions: 50 g ai/ha, scale 0 (no control) to 100 (complete control)
# Summary of the method: as §1
# velvetleaf [4] = test: as above; design: key to Soil treatment herbicidal activity, velvet leaf: 0 (no control); 100 (complete control); conditions: 50 g ai/ha, scale 0 (no control) to 100 (complete control)
# Summary of the method: as §1
# [5] = 50 g ai/ha, Cotton (7 days after treatment)
# [6] = 50 g ai/ha, Cotton (14 days after treatment)
# [7] = 100 g ai/ha, Cotton (7 days after treatment)
# [8] = 100 g ai/ha, Cotton (14 days after treatment)
# [9] = 50 g ai/ha, Rice (7 days after treatment)
# [10] = 50 g ai/ha, Rice (14 days after treatment)
# [11] = 100 g ai/ha, Rice (7 days after treatment)
# [12] = 100 g ai/ha, Rice (14 days after treatment)
# [13] = 50 g ai/ha, Soybean (7 days after treatment)
# [14] = 50 g ai/ha, Soybean (14 days after treatment)
# [15] = 100 g ai/ha, Soybean (7 days after treatment)
# [16] = 100 g ai/ha, Soybean (14 days after treatment)
# [17] = 50 g ai/ha, Wheat (7 days after treatment)
# [18] = 50 g ai/ha, Wheat (14 days after treatment)
# [19] = 100 g ai/ha, Wheat (7 days after treatment)
# [20] = 100 g ai/ha, Wheat (14 days after treatment)
# [21] = 50 g ai/ha, Corn (7 days after treatment)
# [22] = 50 g ai/ha, Corn (14 days after treatment)
# [23] = 100 g ai/ha, Corn (7 days after treatment)
# [24] = 100 g ai/ha, Corn (14 days after treatment)
SMILES,"Foliar treatment herbicidal activity, velvet leaf (velvetleaf [1])","Foliar treatment herbicidal activity, quack grass (quack grass [2])","Foliar treatment phytotoxicity, Cotton (cotton; [5])","Foliar treatment phytotoxicity, Cotton (cotton; [6])","Foliar treatment phytotoxicity, Cotton (cotton; [7])","Foliar treatment phytotoxicity, Cotton (cotton; [8])","Foliar treatment phytotoxicity, Rice (rice; [9])","Foliar treatment phytotoxicity, Rice (rice; [10])","Foliar treatment phytotoxicity, Rice (rice; [11])","Foliar treatment phytotoxicity, Rice (rice; [12])","Foliar treatment phytotoxicity, Soybean (soybean; [13])","Foliar treatment phytotoxicity, Soybean (soybean; [14])","Foliar treatment phytotoxicity, Soybean (soybean; [15])","Foliar treatment phytotoxicity, Soybean (soybean; [16])","Foliar treatment phytotoxicity, Wheat (wheat; [17])","Foliar treatment phytotoxicity, Wheat (wheat; [18])","Foliar treatment phytotoxicity, Wheat (wheat; [19])","Foliar treatment phytotoxicity, Corn (corn; [21])","Foliar treatment phytotoxicity, Corn (corn; [22])","Soil treatment herbicidal activity, quack grass (quack grass [3])",also measured
"CCOC(=O)OC(C)N(C(=O)c1ccc(C(F)(F)F)nc1COCc1nnn(C)n1)c1nnnn1C (stereo not drawn) [Compound No. 4-8, ethyl(1-(N-(1-methyl-1H-tetrazol-5-yl)-2-(((2-methyl-2H-tetrazol-5-yl)methoxy)methyl)-6-(trifluoromethyl)nicotinamido)ethyl)carbonate]",100,0,0,0,0,0,0,0,0,0,0,0,0,0,2,1,2,0,0,0,"Soil treatment herbicidal activity, Crabgrass (crabgrass): 100; Soil treatment herbicidal activity, barnyard grass (barnyard grass): 100; Foliar treatment herbicidal activity, Sorghum (sorghum): 70; Foliar treatment phytotoxicity, Wheat (wheat; [20]): 2; Foliar treatment phytotoxicity, Corn (corn; [23]): 0; Foliar treatment phytotoxicity, Corn (corn; [24]): 0; Foliar treatment herbicidal activity, Cocklebur (cocklebur): 100; Soil treatment herbicidal activity, velvet leaf (velvetleaf [4]): 100"
"Cn1nnc(COCc2nc(C(F)(F)F)ccc2C(=O)N(c2nnnn2C)S(C)(=O)=O)n1 [Compound No. 2-69, N-(1-methyl-1H-tetrazol-5-yl)-2-(((2-methyl-2H-tetrazol-5-yl)methoxy)methyl)-N-(methylsulfonyl)-6-(trifluoromethyl)nicotinamide]",–,0,4,9,–,–,6,7,–,–,6,6,–,–,0,0,–,4,3,0,"pest or weed control at 50 g/ha (crabgrass): 98%; pest or weed control at 50 g/ha (barnyard grass): 100%; pest or weed control at 50 g/ha (velvetleaf [1]; Abutilon theophrasti, scale 0-100, read-out: Foliar treatment herbicidal activity, velvet leaf): 80%; plant injury at 50 g/ha (sorghum): 40%; pest or weed control at 50 g/ha (cocklebur): 95%; Soil treatment herbicidal activity, velvet leaf (velvetleaf [4]): 100"
"CON(Cc1nnn(C)n1)c1nc(C(F)(F)F)ccc1C(=O)Nc1nnnn1C [Compound No. 2-30, 2-(methoxy((2-methyl-2H-tetrazol-5-yl)methyl)amino)-N-(1-methyl-1H-tetrazol-5-yl)-6-(trifluoromethyl)nicotinamide]",100,0,0,0,3,8,3,5,5,7,0,0,6,6,2,1,3,0,0,0,"Soil treatment herbicidal activity, Crabgrass (crabgrass): 100; Soil treatment herbicidal activity, barnyard grass (barnyard grass): 100; plant injury at 50 g/ha (sorghum): 20%; Foliar treatment phytotoxicity, Wheat (wheat; [20]): 3; Foliar treatment phytotoxicity, Corn (corn; [23]): 1; Foliar treatment phytotoxicity, Corn (corn; [24]): 1; pest or weed control at 50 g/ha (cocklebur): 98%; Soil treatment herbicidal activity, velvet leaf (velvetleaf [4]): 100"
"Cn1nnnc1COCc1nc(C(F)(F)F)ccc1C(=O)Nc1nnnn1C [Compound No. 1-61, N-(1-methyl-1H-tetrazol-5-yl)-2-(((1-methyl-1H-tetrazol-5-yl)methoxy)methyl)-6-(trifluoromethyl)nicotinamide]",100,0,3,6,0,7,4,6,5,6,6,9,0,9,4,3,0,0,0,0,"pest or weed control at 50 g/ha (crabgrass): 40%; pest or weed control at 50 g/ha (barnyard grass): 20%; plant injury at 50 g/ha (sorghum): 20%; Foliar treatment phytotoxicity, Wheat (wheat; [20]): 6; Foliar treatment phytotoxicity, Corn (corn; [23]): 0; Foliar treatment phytotoxicity, Corn (corn; [24]): 0; pest or weed control at 50 g/ha (cocklebur): 98%; pest or weed control at 50 g/ha (velvetleaf [4]; Abutilon theophrasti, read-out: Soil treatment herbicidal activity, velvet leaf): 90%"
